The text below walks through data of PubChem BioAssay AID248 (DTP/NCI, 2004).

Values joined by “and” are separate entries in the source; they are usually repeats but may differ in a detail not shown here. Identical values can stand only once. Toxic doses and inconclusive results are not listed.

The subject of this test is L1210 leukemia ip in BDF1 mice, survival T/C. The test can be described thus: NCI In Vivo Anticancer Drug Screen. Data for tumor model L1210 Leukemia (intraperitoneal) in B6D2F1 (BDF1) mice. To be noted: endpoint: mean survival time, higher = longer survival. The method, then: The antitumor activity of compounds was measured in mice bearing transplantable tumors. Survival or tumor size were measured and the results are expressed as the measurement made in the treated group (T) divided by the measurement made in the vehicle treated control group (C). The tumor model used in this assay is L1210 Leukemia (intraperitoneal) in B6D2F1 (BDF1) mice

Where [1] appears, read: dose: 100.0 mg/kg/injection, schedule: Q01DX001 (ip), vehicle: carboxymethylcellulose (CMC).
Where [2] appears, read: dose: 200.0 mg/kg/injection, schedule: Q01DX001 (ip), vehicle: carboxymethylcellulose (CMC).
The mark [3] stands for this setting: dose: 400.0 mg/kg/injection, schedule: Q01DX001 (ip), vehicle: carboxymethylcellulose (CMC).
Where [4] appears, read: dose: 50.0 mg/kg/injection, schedule: Q01DX001 (ip), vehicle: saline.
[5] abbreviates: dose: 100.0 mg/kg/injection, schedule: Q01DX001 (ip), vehicle: saline.
Setting [6] is: dose: 100.0 mg/kg/injection, schedule: Q01DX009 (ip), vehicle: Klucel (hydroxypropylcellulose) (HPC).
Setting [7] is: dose: 200.0 mg/kg/injection, schedule: Q01DX009 (ip), vehicle: Klucel (hydroxypropylcellulose) (HPC).
Where [8] appears, read: dose: 25.0 mg/kg/injection, schedule: Q01DX009 (ip), vehicle: Klucel (hydroxypropylcellulose) (HPC).
[9] abbreviates: dose: 50.0 mg/kg/injection, schedule: Q01DX009 (ip), vehicle: Klucel (hydroxypropylcellulose) (HPC).
[10] abbreviates: dose: 200.0 mg/kg/injection, schedule: Q04DX003 (ip), vehicle: saline.
The mark [11] stands for this setting: dose: 400.0 mg/kg/injection, schedule: Q01DX009 (ip), vehicle: Klucel (hydroxypropylcellulose) (HPC).
Setting [12] is: dose: 400.0 mg/kg/injection, schedule: Q04DX003 (ip), vehicle: saline.
Setting [13] is: dose: 100.0 mg/kg/injection, schedule: Q01DX001 (ip), vehicle: saline with Tween-80.
Where [14] appears, read: dose: 200.0 mg/kg/injection, schedule: Q01DX001 (ip), vehicle: saline with Tween-80.
Where [15] appears, read: dose: 400.0 mg/kg/injection, schedule: Q01DX001 (ip), vehicle: saline with Tween-80.
Where [16] appears, read: dose: 100.0 mg/kg/injection, schedule: Q04DX003 (ip), vehicle: Klucel (hydroxypropylcellulose) (HPC).
Where [17] appears, read: dose: 200.0 mg/kg/injection, schedule: Q01DX001 (ip), vehicle: saline.
[18] abbreviates: dose: 200.0 mg/kg/injection, schedule: Q04DX003 (ip), vehicle: Klucel (hydroxypropylcellulose) (HPC).
Setting [19] is: dose: 400.0 mg/kg/injection, schedule: Q01DX001 (ip), vehicle: saline.
The mark [20] stands for this setting: dose: 400.0 mg/kg/injection, schedule: Q04DX003 (ip), vehicle: Klucel (hydroxypropylcellulose) (HPC).
Setting [21] is: dose: 100.0 mg/kg/injection, schedule: Q04DX003 (ip), vehicle: saline.

Turning to `CN(C)C(=S)SCCC(=O)O`, the T/C is, setting by setting: (dose: 100.0 mg/kg/injection, schedule: Q04DX002 (ip), vehicle: Klucel (hydroxypropylcellulose) (HPC)) 94 % of control; (dose: 100.0 mg/kg/injection, schedule: Q04DX002 (ip), vehicle: saline) 103 % of control; (dose: 200.0 mg/kg/injection, schedule: Q04DX002 (ip), vehicle: Klucel (hydroxypropylcellulose) (HPC)) 88 % of control; (dose: 200.0 mg/kg/injection, schedule: Q04DX002 (ip), vehicle: saline) 100 % of control; (dose: 400.0 mg/kg/injection, schedule: Q04DX002 (ip), vehicle: saline) 100 % of control.

Regarding `CCOC(=O)CCCc1ccc(N=NN(C)C(C)CC)cc1` (stereo not drawn), the T/C under setting [1] is 111 % of control, the T/C under setting [2] was 102 % of control and the T/C under setting [3] is 107 % of control.

With `CCOC(=O)/C(=C/c1ccc(C)cc1)P(=O)(OCC)OCC`, the T/C was 101 % of control under setting [4] and 101 % of control under setting [5].

With `CS(=O)(=O)Nc1ccccc1N`, the T/C under setting [6] was 95 % of control and the T/C under setting [7] was 93 % of control.

Turning to `Cc1cc(C)cc(OCC2CNC(=O)O2)c1` (stereo not drawn), the T/C under setting [8] was 101 % of control; the T/C (dose: 25.0 mg/kg/injection, schedule: Q04DX003 (ip), vehicle: saline) was 90 % of control; the T/C under setting [9] was 114 % of control; the T/C (dose: 50.0 mg/kg/injection, schedule: Q04DX003 (ip), vehicle: saline) was 92 % of control; the T/C under setting [6] was 100 % of control; the T/C under setting [7] was 100 % of control. Also, the T/C by setting is: under setting [10], 90 % of control; under setting [11], 103 % of control; under setting [12], 113 % of control.

As to `CC/C=C(CC)/C(CC)=C(/CC)CO`, the T/C is, setting by setting: under setting [13], 103 % of control; under setting [14], 95 % of control; under setting [15], 92 % of control.

With `c1ccc2c(c1)[nH]c1cc3ccncc3cc12`, the T/C reads like this: under setting [4], 100 % of control; (dose: 100.0 mg/kg/injection, schedule: Q01DX001 (ip), vehicle: Klucel (hydroxypropylcellulose) (HPC)) 94 % of control; under setting [5], 94 % of control; under setting [16], 93 % of control; (dose: 200.0 mg/kg/injection, schedule: Q01DX001 (ip), vehicle: Klucel (hydroxypropylcellulose) (HPC)) 96 % of control; under setting [17], 98 % of control. Moreover, the T/C under setting [18] was 93 % of control; the T/C (dose: 400.0 mg/kg/injection, schedule: Q01DX001 (ip), vehicle: Klucel (hydroxypropylcellulose) (HPC)) is 92 % of control; the T/C under setting [19] was 96 % of control; the T/C under setting [20] was 91 % of control.

With `C[N+](C)(C)c1ncnc2c1ncn2C1CC(O)C(CO)O1` (stereo not drawn), the T/C runs as follows: under setting [4], 104 % of control; under setting [5], 96 % of control; under setting [17], 102 % of control.

On to `CCOC(=O)N(CCCCCCNC(c1ccccc1)S(=O)(=O)O)c1ccccc1` (stereo not drawn), for which the T/C is, setting by setting: (dose: 6.0 mg/kg/injection, schedule: Q01DX009 (ip), vehicle: saline) 109 % of control; (dose: 12.0 mg/kg/injection, schedule: Q01DX009 (ip), vehicle: saline) 103 % of control; (dose: 25.0 mg/kg/injection, schedule: Q01DX009 (ip), vehicle: saline) 106 % of control; (dose: 50.0 mg/kg/injection, schedule: Q01DX009 (ip), vehicle: saline) 97 % of control; under setting [1], 98 % of control; (dose: 100.0 mg/kg/injection, schedule: Q01DX009 (ip), vehicle: saline) 86 % of control.

As to `C[n+]1ccc(Nc2ccc(NC(=O)c3ccc(Nc4cc[n+](C)c5ccc([N+](=O)[O-])cc45)cc3)cc2)cc1`, the T/C is 99 % of control (dose: 1.0 mg/kg/injection, schedule: Q01DX009 (ip), vehicle: water); 112 % of control (dose: 2.0 mg/kg/injection, schedule: Q01DX009 (ip), vehicle: water); 119 % of control (dose: 4.0 mg/kg/injection, schedule: Q01DX009 (ip), vehicle: water); 116 % of control (dose: 8.0 mg/kg/injection, schedule: Q01DX009 (ip), vehicle: water); 192 % of control (dose: 16.0 mg/kg/injection, schedule: Q01DX009 (ip), vehicle: water); 262 % of control (dose: 32.0 mg/kg/injection, schedule: Q01DX009 (ip), vehicle: water). The T/C is 201 % of control and 219 % of control under setting [21]; 213 % of control under setting [10]; 150 % of control and 153 % of control under setting [12].

Regarding `CCN(CC)C(=O)OCCN1C(=O)C2C3CCC(O3)C2C1=O` (stereo not drawn), the T/C by setting is: under setting [16], 93 % of control; under setting [18], 92 % of control; under setting [20], 93 % of control.

Consider `Cc1ccc(C)c(NC(=O)Nc2ccccc2F)c1`, for which the T/C is 89 % of control (dose: 100.0 mg/kg/injection, schedule: Q01DX009 (ip), vehicle: carboxymethylcellulose (CMC)); 86 % of control (dose: 200.0 mg/kg/injection, schedule: Q01DX009 (ip), vehicle: carboxymethylcellulose (CMC)); 87 % of control (dose: 400.0 mg/kg/injection, schedule: Q01DX009 (ip), vehicle: carboxymethylcellulose (CMC)).

Consider `COc1ccc(/C(=C(/CC(=O)O)C(=O)OC(C)(C)C)c2cc(OC)c(OC)c(OC)c2)cc1OC`, for which the T/C was 96 % of control under setting [1], 102 % of control under setting [2] and 97 % of control under setting [3].

Consider `O=C(NCCO)Nc1ccc(Cl)c(Cl)c1`, for which the T/C runs as follows: under setting [6], 100 % of control; under setting [7], 103 % of control; under setting [18], 101 % of control; under setting [11], 101 % of control; under setting [20], 87 % of control.

Turning to `CCOC1(OCC)C(Cl)=C(Cl)C(Cl)=C1Cl`, the T/C runs as follows: (dose: 25.0 mg/kg/injection, schedule: Q01DX005 (ip), vehicle: Klucel (hydroxypropylcellulose) (HPC)) 108 % of control; under setting [8], 110 % of control; (dose: 25.0 mg/kg/injection, schedule: Q04DX002 (ip), vehicle: Klucel (hydroxypropylcellulose) (HPC)) 104 % of control; (dose: 50.0 mg/kg/injection, schedule: Q01DX005 (ip), vehicle: Klucel (hydroxypropylcellulose) (HPC)) 102 % of control; under setting [9], 96 % of control; (dose: 50.0 mg/kg/injection, schedule: Q04DX002 (ip), vehicle: Klucel (hydroxypropylcellulose) (HPC)) 104 % of control. For the same molecule, the T/C (dose: 100.0 mg/kg/injection, schedule: Q01DX005 (ip), vehicle: Klucel (hydroxypropylcellulose) (HPC)) is 97 % of control.

Consider `Cn1cc(Cl)nc1CO`, for which the T/C by setting is: (dose: 100.0 mg/kg/injection, schedule: Q01DX009 (ip), vehicle: saline sonified) 91 % of control; under setting [21], 91 % of control; (dose: 200.0 mg/kg/injection, schedule: Q01DX009 (ip), vehicle: saline sonified) 102 % of control; under setting [10], 107 % of control; (dose: 400.0 mg/kg/injection, schedule: Q01DX009 (ip), vehicle: saline sonified) 93 % of control; under setting [12], 102 % of control.

On to `Nc1ccc(N=Nc2ccccc2)c(N)n1`, for which the T/C is, setting by setting: under setting [16], 89 % of control; under setting [21], 97 % of control; under setting [18], 90 % of control.

Regarding `CSc1ccccc1/C=C(/C(=O)O)c1ccccc1O`, the T/C is, setting by setting: under setting [13], 103 % of control; under setting [14], 97 % of control; under setting [15], 103 % of control.

Regarding `CC(=O)OC1CCC2(C)C3=C(CCC2C1(C)C)C1CCC(C(C)CCC=C(C)C)C1(C)CC3` (stereo not drawn), the T/C under setting [16] is 96 % of control and the T/C under setting [18] is 96 % of control.

`O=S(=O)(C1CC1c1ccccc1)N1CCCc2ccccc21` (stereo not drawn): the T/C by setting is: under setting [5], 103 % of control; under setting [21], 98 % of control; under setting [17], 103 % of control; under setting [10], 98 % of control; under setting [19], 95 % of control; under setting [12], 104 % of control.
